Experimental data as given in ChEMBL document CHEMBL3639008, “Pyridopyrazines as highly selective ras-Raf-Mek-Erk signal transduction pathway inhibitors” (2014).

Target: Mitogen-activated protein kinase 1 (Homo sapiens, UniProt P28482)
Test: Cell-Free Kinase Assays: The inhibitory effect of the compounds according to the invention was tested on various serine/threonine, tyrosine and lipid kinases in enzymatic assays. Recombinant human kinases such as, for example, Erk2, were used in this case, partly as full-length kinases, partly as shortened fragments, but at least consisting of the functional kinase domains. The commercial kinase proteins (Proqinase, Upstate) were used as recombinant fusion proteins with GST (glutathion-S-transferase) or His-Tag. Depending on the type of substrate, the various kinase reactions were quantified by means of suitable ALPHA beads (Perkin-Elmer). MAPK-ALPHAs (e.g. Erk2): the test substance, 0.625 ng Erk2 (#14-173, Upstate), 10 uM ATP and 15 nM biotinylated MBP (myelin basic protein) substrate were incubated on a 384-well Optiplate (Perkin-Elmer) in a volume of 15 ul for 1 h in 25 mM Tris, 10 mM MgCl2, 0.1% Tween-20, 100 uM NaVO4, 2 mM DTT at pH 7.5.

Chain of Mitogen-activated protein kinase 1 (P28482 whole entry, the tested form may be a part): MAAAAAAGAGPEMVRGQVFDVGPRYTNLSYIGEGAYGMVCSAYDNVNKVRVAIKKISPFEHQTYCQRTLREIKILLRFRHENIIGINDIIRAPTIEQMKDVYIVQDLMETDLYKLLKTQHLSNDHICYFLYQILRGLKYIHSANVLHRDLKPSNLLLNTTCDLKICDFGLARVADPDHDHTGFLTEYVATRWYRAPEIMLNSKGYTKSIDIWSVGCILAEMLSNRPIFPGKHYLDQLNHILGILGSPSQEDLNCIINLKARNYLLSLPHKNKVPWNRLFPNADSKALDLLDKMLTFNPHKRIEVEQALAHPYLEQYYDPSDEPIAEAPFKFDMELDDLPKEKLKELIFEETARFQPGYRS

## O=C(NCCCCc1ccccc1)Nc1ccc2ncc(-c3cnn(CC(F)F)c3)nc2n1
  IC50: 2 nM
